Our source for the IC50 values is patent US9556179B2 (BRISTOL-MYERS SQUIBB COMPANY, priority 2012, dated 2017).

Assay [1] has as its target CK1ε (Homo sapiens (Human), UniProt P49674). Description: CK1ε kinase assay (Caliper LABCHIP electrophoretic separation of fluoresceinated peptide substrate and product). Format: biochemical. To be noted: 200 pM enzyme, 50 μM ATP, 22 hours at room temperature. The method in brief: (§1)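 Reactions ran 22 hours at room temperature and were stopped with EDTA. Phosphorylated product and unphosphorylated substrate were then separated electrophoretically. Compounds were tested at eleven concentrations, and IC50 values came from non-linear regression.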

In assay [2] the target is CK1δ (Homo sapiens (Human), UniProt P48730). As to the kind of experiment: CK1δ kinase assay (Caliper LABCHIP electrophoretic separation of fluoresceinated peptide substrate and product). The assay is classed as biochemical. To be noted: 200 pM enzyme, 50 μM ATP, 22 hours at room temperature. The method in brief:
as §1

Chain of CK1δ (P48730 whole entry): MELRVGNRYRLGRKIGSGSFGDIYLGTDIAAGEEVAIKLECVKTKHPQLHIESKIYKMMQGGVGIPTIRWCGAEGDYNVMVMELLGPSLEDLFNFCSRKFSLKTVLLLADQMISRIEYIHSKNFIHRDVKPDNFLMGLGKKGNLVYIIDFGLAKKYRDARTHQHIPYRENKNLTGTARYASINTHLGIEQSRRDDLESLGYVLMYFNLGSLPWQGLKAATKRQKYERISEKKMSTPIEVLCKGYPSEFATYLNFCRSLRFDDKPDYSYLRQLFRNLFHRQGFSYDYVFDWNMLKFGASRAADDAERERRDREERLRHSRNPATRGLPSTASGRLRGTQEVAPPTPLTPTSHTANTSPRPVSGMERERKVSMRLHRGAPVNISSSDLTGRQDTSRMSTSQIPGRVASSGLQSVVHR
Chain of CK1ε (P49674 whole entry): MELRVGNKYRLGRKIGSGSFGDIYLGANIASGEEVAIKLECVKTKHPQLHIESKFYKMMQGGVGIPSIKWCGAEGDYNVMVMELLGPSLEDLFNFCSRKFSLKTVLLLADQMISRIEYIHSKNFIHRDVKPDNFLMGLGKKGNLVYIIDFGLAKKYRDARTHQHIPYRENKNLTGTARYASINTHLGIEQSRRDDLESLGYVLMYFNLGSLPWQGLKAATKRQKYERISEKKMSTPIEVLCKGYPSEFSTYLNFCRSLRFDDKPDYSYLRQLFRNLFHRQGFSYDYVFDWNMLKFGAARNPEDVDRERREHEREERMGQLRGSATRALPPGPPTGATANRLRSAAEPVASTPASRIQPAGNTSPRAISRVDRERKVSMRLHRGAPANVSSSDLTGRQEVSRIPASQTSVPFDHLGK

One may read the IC50 as the concentration needed to halve the response being measured. Read a high IC50 as a need for much substance. Turning to `Cc1nc(-c2ccc(F)cc2)c(-c2ccc3nc(NC(=O)c4ccccc4F)cn3n2)n1C` [Compound 399, 2-fluoro-N-(6-(4-(4-fluoro-phenyl)-1,2-dimethyl-1H-imidazol-5-yl)imidazo[1,2-b]pyridazin-2-yl)benzamide], the results for the IC50 in assay [1] and in assay [2] were 5.29 nM and 2.13 nM, respectively.
In the same order, the values of `Cc1nc(-c2ccc(F)cc2)c(-c2ccc3nc(NC(=O)c4cc(C(C)(C)C)ncn4)cn3n2)n1C` [Compound 400, 6-(tert-butyl)-N-(6-(4-(4-fluorophenyl)-1,2-dimethyl-1H-imidazol-5-yl)imidazo[1,2-b]pyridazin-2-yl) pyrimidine-4-carboxamide] are 23.3 nM and 6.76 nM.
Taken in the same sequence, the figures for `Cc1cc(C)c(-c2cccnc2)cc1C(=O)Nc1cn2nc(-c3c(-c4ccc(F)cc4)nc(C)n3C)ccc2n1` [Compound 402, N-(6-(4-(4-Fluorophenyl)-1,2-dimethyl-1H-imidazol-5-yl)imidazo[1,2-b]pyridazin-2-yl)-2,4-dimethyl-5-(pyridin-3-yl)benzamide] were 7.47 nM and 0.463 nM.
Taken in the same sequence, the figures for `Cc1c(C(=O)Nc2cn3nc(-c4c(-c5ccc(F)cc5)nc(C)n4C)ccc3n2)cccc1-c1cccnc1` [Compound 403, N-(6-(4-(4-Fluorophenyl)-1,2-dimethyl-1H-imidazol-5-yl)imidazo[1,2-b]pyridazin-2-yl)-2-methyl-3-(pyridin-3-yl)benzamide] were 1.61 nM and 0.582 nM.
In the case of `Cc1nc(-c2ccc(F)cc2)c(-c2ccc3nc(NC(=O)c4sc(-c5cccnc5)nc4C(F)(F)F)cn3n2)n1C` [Compound 404, N-(6-(4-(4-Fluorophenyl)-1,2-dimethyl-1H-imidazol-5-yl)imidazo[1,2-b]pyridazin-2-yl)-2-(pyridin-3-yl)-4-(trifluoromethyl)thiazole-5-carboxamide], the results for the IC50 in assay [1] and in assay [2] were 4.21 nM and 1.04 nM, respectively.
Taken in the same sequence, the figures for `Cc1nc(-c2ccc(F)cc2)c(-c2ccc3nc(NC(=O)c4sc(-c5ccncc5)nc4C(F)(F)F)cn3n2)n1C` [Compound 405, N-(6-(4-(4-Fluorophenyl)-1,2-dimethyl-1H-imidazol-5-yl)imidazo[1,2-b]pyridazin-2-yl)-2-(pyridin-4-yl)-4-(trifluoromethyl)thiazole-5-carboxamide] were 4.21 nM and 1.04 nM.
Taken in the same sequence, the figures for `Cc1nc(-c2ccc(F)cc2)c(-c2ccc3nc(NC(=O)c4cncc(-c5ccc(F)nc5)c4)cn3n2)n1C` [Compound 406, 6′-Fluoro-N-(6-(4-(4-fluorophenyl)-1,2-dimethyl-1H-imidazol-5-yl)imidazo[1,2-b]pyridazin-2-yl)-[3,3′-bipyridine]-5-carboxamide] were 2.94 nM and 0.349 nM.
In the same order, the values of `Cc1nc(-c2ccc(F)cc2)c(-c2ccc3nc(NC(=O)N(C)c4ccccc4)cn3n2)n1C` [Compound 407, 3-(6-(4-(4-Fluorophenyl)-1,2-dimethyl-1H-imidazol-5-yl)imidazo[1,2-b]pyridazin-2-yl)-1-methyl-1-phenylurea] are 59.8 nM and 34.9 nM.
Regarding `Cc1nc(-c2ccc(F)cc2)c(-c2ccc3nc(NC(=O)Nc4ccc(C#N)cc4)cn3n2)n1C` [Compound 408, 1-(4-cyanophenyl)-3-(6-(4-(4-fluorophenyl)-1,2-dimethyl-1H-imidazol-5-yl)imidazo[1,2-b]pyridazin-2-yl)urea], the IC50 in assay [1] was 296 nM; in assay [2], 12.9 nM.
In the same order, the values of `Cc1nc(-c2ccc(F)cc2)c(-c2ccc3nc(NC(=O)N4CCCC4)cn3n2)n1C` [Compound 409, N-(6-(4-(4-fluorophenyl)-1,2-dimethyl-1H-imidazol-5-yl)imidazo[1,2-b]pyridazin-2-yl)pyrrolidine-1-carboxamide] are 30.8 nM and 58 nM.
Taken in the same sequence, the figures for `Cc1nc(-c2ccc(F)cc2)c(-c2ccc3nc(NC(=O)Nc4cccc(C#N)c4)cn3n2)n1C` [Compound 410, 1-(3-cyanophenyl)-3-(6-(4-(4-fluorophenyl)-1,2-dimethyl-1H-imidazol-5-yl)imidazo[1,2-b]pyridazin-2-yl)urea] were 151 nM and 7.57 nM.
Taken in the same sequence, the figures for `Cc1nc(-c2ccc(F)cc2)c(-c2ccc3nc(NC(=O)c4ccnc(F)c4)c(Br)n3n2)n1C` [Compound 411, N-(3-Bromo-6-(4-(4-fluorophenyl)-1,2-dimethyl-1H-imidazol-5-yl)imidazo[1,2-b]pyridazin-2-yl)-2-fluoroisonicotinamide] were 19.4 nM and 1.61 nM.
As to `Cc1nc(-c2ccc(F)cc2)c(-c2ccc3nc(NC(=O)c4ccnc(F)c4)c(Cl)n3n2)n1C` [Compound 412, N-(3-Chloro-6-(4-(4-fluorophenyl)-1,2-dimethyl-1H-imidazol-5-yl)imidazo[1,2-b]pyridazin-2-yl)-2-fluoroisonicotinamide], the IC50 in assay [1] was 26.6 nM; in assay [2] it was 2.25 nM.
In the same order, the values of `Cc1nc(-c2ccc(F)cc2)c(-c2ccc3nc(NC(=O)c4ccnc(F)c4)c(C)n3n2)n1C` [Compound 413, 2-Fluoro-N-(6-(4-(4-fluorophenyl)-1,2-dimethyl-1H-imidazol-5-yl)-3-methylimidazo[1,2-b]pyridazin-2-yl)isonicotinamide] are 19.6 nM and 1.14 nM.
Taken in the same sequence, the figures for `Cc1nc(-c2ccc(F)cc2)c(-c2ccc3nc(NC(=O)C(C)(C)C)cn3n2)n1C` [Compound 414, N-(6-(4-(4-Fluorophenyl)-1,2-dimethyl-1H-imidazol-5-yl)imidazo[1,2-b]pyridazin-2-yl)pivalamide] were 4.35 nM and 0.438 nM.
In the case of `O=C(Nc1cn2nc(-c3c(-c4ccc(F)cc4)ncn3CC(F)F)ccc2n1)c1cnc(-c2ccncc2)s1` [Compound 415, N-(6-(1-(2,2-Difluoroethyl)-4-(4-fluorophenyl)-1H-imidazol-5-yl)imidazo[1,2-b]pyridazin-2-yl)-2-(pyridin-4-yl)thiazole-5-carboxamide], the IC50 in assay [1] worked out at 8.71 nM; in assay [2] it was 1.21 nM.
Taken in the same sequence, the figures for `O=C(Nc1cn2nc(-c3c(-c4ccc(F)cc4)ncn3-c3ccc(F)cc3)ccc2n1)c1ccnc(F)c1` [Compound 416, N-(6-(1,4-bis(4-Fluorophenyl)-1H-imidazol-5-yl)imidazo[1,2-b]pyridazin-2-yl)-2-fluoroisonicotinamide] were 57.4 nM and 2.5 nM.
In the same order, the values of `O=C(Nc1cn2nc(-c3c(-c4ccc(F)cc4)ncn3-c3ccc(F)cc3)ccc2n1)c1cc(F)nc(F)c1` [Compound 418, N-(6-(1,4-bis(4-Fluorophenyl)-1H-imidazol-5-yl)imidazo[1,2-b]pyridazin-2-yl)-2,6-difluoroisonicotinamide] are 79.2 nM and 6.4 nM.
On to `O=C(Nc1cn2nc(-c3c(-c4ccc(F)cc4)ncn3-c3ccc(F)cc3)ccc2n1)c1ccnc(N2CCOCC2)c1` [Compound 419, N-(6-(1,4-bis(4-Fluorophenyl)-1H-imidazol-5-yl)imidazo[1,2-b]pyridazin-2-yl)-2-morpholinoisonicotinamide], for which the half-maximal inhibitory concentration (IC50) was found to be 35.2 nM in assay [1] and 3.1 nM in assay [2].
For `O=C(Nc1cn2nc(-c3c(-c4ccc(F)cc4)ncn3-c3ccc(F)cc3)ccc2n1)c1cccc(-c2cccnc2)c1` [Compound 420, N-(6-(1,4-bis(4-Fluorophenyl)-1H-imidazol-5-yl)imidazo[1,2-b]pyridazin-2-yl)-3-(pyridin-3-yl)benzamide], the IC50 amounted to 18.5 nM in assay [1] and 3.6 nM in assay [2].
In the same order, the values of `O=C(Nc1cn2nc(-c3c(-c4ccc(F)cc4)ncn3-c3cccnc3)ccc2n1)c1cc(F)nc(F)c1` [Compound 423, 2,6-Difluoro-N-(6-(4-(4-fluorophenyl)-1-(pyridin-3-yl)-1H-imidazol-5-yl)imidazo[1,2-b]pyridazin-2-yl)isonicotinamide] are 18 nM and 1.1 nM.
Take `O=C(Nc1cn2nc(-c3c(-c4ccc(F)cc4)ncn3-c3cccnc3)ccc2n1)c1ccnc(N2CCOCC2)c1` [Compound 424, N-(6-(4-(4-Fluorophenyl)-1-(pyridin-3-yl)-1H-imidazol-5-yl)imidazo[1,2-b]pyridazin-2-yl)-2-morpholinoisonicotinamide]: the IC50 in assay [1] worked out at 13.6 nM; in assay [2], 1 nM.
In the same order, the values of `O=C(Nc1cn2nc(-c3c(-c4ccc(F)cc4)ncn3-c3cccnc3)ccc2n1)c1cccc(-c2cccnc2)c1` [Compound 425, N-(6-(4-(4-Fluorophenyl)-1-(pyridin-3-yl)-1H-imidazol-5-yl)imidazo[1,2-b]pyridazin-2-yl)-3-(pyridin-3-yl)benzamide] are 11 nM and 1.1 nM.
Taken in the same sequence, the figures for `O=C(Nc1cn2nc(-c3c(-c4ccc(F)cc4)ncn3C3CC3)ccc2n1)c1ccnc(F)c1` [Compound 426, N-(6-(1-Cyclopropyl-4-(4-fluorophenyl)-1H-imidazol-5-yl)imidazo[1,2-b]pyridazin-2-yl)-2-fluoroisonicotinamide] were 10.4 nM and 0.9 nM.
Taken in the same sequence, the figures for `O=C(Nc1cn2nc(-c3c(-c4ccc(F)cc4)ncn3C3CC3)ccc2n1)c1ccncc1` [Compound 427, N-(6-(1-Cyclopropyl-4-(4-fluorophenyl)-1H-imidazol-5-yl)imidazo[1,2-b]pyridazin-2-yl)isonicotinamide] were 6.5 nM and 0.7 nM.
Regarding `O=C(Nc1cn2nc(-c3c(-c4ccc(F)cc4)ncn3C3CC3)ccc2n1)c1ccnc(N2CCOCC2)c1` [Compound 428, N-(6-(1-Cyclopropyl-4-(4-fluorophenyl)-1H-imidazol-5-yl)imidazo[1,2-b]pyridazin-2-yl)-2-morpholinoisonicotinamide], the IC50 in assay [1] worked out at 9.1 nM; in assay [2], 0.9 nM.
Taken in the same sequence, the figures for `O=C(Nc1cn2nc(-c3c(-c4ccc(F)cc4)ncn3C3CCOCC3)ccc2n1)c1cc(F)nc(F)c1` [Compound 433, 2,6-Difluoro-N-(6-(4-(4-fluorophenyl)-1-(tetrahydro-2H-pyran-4-yl)-1H-imidazol-5-yl)imidazo[1,2-b]pyridazin-2-yl)isonicotinamide] were 1.2 nM and 0.2 nM.
